In US20170008927A1, “ARTIFICIAL CATALYST SYSTEM SUBSTITUTABLE FOR IN VIVO ACYLATION FUNCTION” (The University of Tokyo, priority 2014, published 2017):

Assays:
Assay type in all cases: cell-based, human
MCF7 cells [1] = assay: Intracellular localization of FITC compounds, fluorescence microscope, MCF7 cells
Method: After compounds having FITC were added to the cells adhering on a glass coverslip, the cells were cultured, washed with PBS, fixed with 3.7% formaldehyde for 10 minutes, and washed with PBS twice.

MCF7 cells [2] = assay: Protein acetylation levels in treated MCF7 cells (chromosome and cytoplasm fractions), western blotting; conditions: FIG. 6 comparison
Method: (§1) Hela cells and MCF7 cells were cultured using Dulbecco's modified Eagle's Medium (DMEM) media supplemented with 10% fetal bovine serum, 100 U/ml of penicillin, and 100 U/ml of streptomycin. The cells were cultured at 37° C. in the presence of 5% CO2.
(§2) The cell fractionation was carried out as follows. Approximately 10^6 cells were detached from a culture dish by a trypsin treatment. After washed with PBS, the cell pellets were suspended in a cooled, cell lysis buffer [50 mM Tris (pH=7.5), 300 mM NaCl, 0.3% Triton X-100, protease inhibitor cocktail, and 1 mM PMSF], and placed on ice for 30 minutes. After the centrifugation (4° C., 1500 rpm, 2 minutes), the supernatant was collected as a cytoplasm fraction. Meanwhile, the pellets were suspended in a cell lysis buffer containing 2 mM MgCl2 and Benzonase (Novagen, 71206), and placed on ice for 30 minutes. Then, 4 mM EDTA was added thereto to stop the reaction. After the centrifugation (4° C., 15000 rpm, 15 minutes), the supernatant was collected as a chromosome fraction.
(§3) Proteins were separated on a 4-20% SDS-PAGE gel, and transferred to a PVDF membrane, followed by blocking with 5% skim milk suspended in TBST for the reaction between the PVDF membrane and primary antibodies. The primary antibodies used were as follows. Anti-Histone H3 (acetyl K122) antibody (ab33309, Abcam), Acetylated-Lysine antibody (#9441, Cell Signaling), Anti-Histone H3 (acetyl K56) antibody (ab76307, Abcam), Anti-acetyl Histone H3 (Lys115) (#07-934, Millipore), Anti-P53 (DO-1) (sc-126, Santa cruz), Anti-Histone H3 (acetyl K9) antibody (ab4441, Abcam), Anti-Histone H3 (acetyl K14) antibody (ab52946, Abcam), Anti-Acetyl-Histone H4 (Ac-Lys16) (H9164, Sigma), Anti-Acetyl-Histone H4 (Ac-Lys5) (SAB4500307, Sigma), anti-acetyl tubulin (T6793, Sigma), Anti-p21/WAF1/Cip1 Antibody (05-655, Millipore), Anti-p27 (Kip1) (04-240, Millipore). […]

Hela cells = assay: Protein acetylation levels in treated HeLa cells (chromosome and cytoplasm fractions), western blotting; conditions: FIG. 6 comparison
Method: as §1, §2, §3

hTERT RPE-1 cells = assay: Protein acetylation levels in treated hTERT RPE-1 normal cells, western blotting; conditions: FIG. 6 comparison
Method: as §2
Proteins were separated on a 4-20% SDS-PAGE gel, and transferred to a PVDF membrane, followed by blocking with 5% skim milk suspended in TBST for the reaction between the PVDF membrane and primary antibodies. The primary antibodies used were as follows. Anti-Histone H3 (acetyl K122) antibody (ab33309, Abcam), Acetylated-Lysine antibody (#9441, Cell Signaling), Anti-Histone H3 (acetyl K56) antibody (ab76307, Abcam), Anti-acetyl Histone H3 (Lys115) (#07-934, Millipore), Anti-P53 (DO-1) (sc-126, Santa cruz), Anti-Histone H3 (acetyl K9) antibody (ab4441, Abcam), Anti-Histone H3 (acetyl K14) antibody (ab52946, Abcam), Anti-Acetyl-Histone H4 (Ac-Lys16) (H9164, Sigma), Anti-Acetyl-Histone H4 (Ac-Lys5) (SAB4500307, Sigma), anti-acetyl tubulin (T6793, Sigma), Anti-p21/WAF1/Cip1 Antibody (05-655, Millipore), Anti-p27 (Kip1) (04-240, Millipore). After washing with TBST, the PVDF membrane was treated with a chemilluminescent detection reagent Luminata Forte Western HRP Substrate (Millipore), and the detection was performed using ImageQuant LAS 4000 (GE healthcare life sciences).
MCF7 cells, HeLa cells, and hTERT RPE-1 (hereinafter, RPE-1) cells which are normal cells were treated with an HDAC inhibitor (SAHA). […] On the other hand, there was no change in the acetylation of K56 present in the H3 globular region (FIG. 6).

| SMILES | intracellular localization (FITC signal) (MCF7 cells [1]) | acetylation of K56, H3 globular region (MCF7 cells [2]) | acetylations of lysines in the tail regions of histones H3 and H4 (MCF7 cells [2]) | tubulin acetylation in the cytoplasm (MCF7 cells [2]) | acetylation of K56, H3 globular region (Hela cells) | acetylations of lysines in the tail regions of histones H3 and H4 (Hela cells) | tubulin acetylation in the cytoplasm (Hela cells) | acetylation of K56, H3 globular region (hTERT RPE-1 cells) | acetylations of lysines in the tail regions of histones H3 and H4 (hTERT RPE-1 cells) | tubulin acetylation in the cytoplasm (hTERT RPE-1 cells) |
| --- | --- | --- | --- | --- | --- | --- | --- | --- | --- | --- |
| CC(=O)N(OCc1cn(CCOCCOCCOc2cc(C(=O)NCC(=O)N[C@@H](CCCNC(=N)N)C(=O)NC(CCCNC(=N)N)C(=O)N[C@@H](CCCNC(=N)N)C(=O)NC(CCCNC(=N)N)C(=O)N[C@@H](CCCNC(=N)N)C(=O)NC(CCCNC(=N)N)C(=O)N[C@@H](CCCNC(=N)N)C(=O)NC(CCCNC(=N)N)C(N)=O)cc(OCCOCCOCCn3cc(CON(C(C)=O)C(C)=O)nn3)c2OCCOCCOCCn2cc(CON(C(C)=O)C(C)=O)nn2)nn1)C(C)=O (stereo partly shown) [Compound 3NMD-8R] | successfully localized in the nucleus and the chromosomes | – | – | – | – | – | – | – | – | – |
| O=C(CCCCCCC(=O)Nc1ccccc1)NO [SAHA] | – | no change | significantly enhanced | significantly enhanced | no change | significantly enhanced | significantly enhanced | no change | significantly enhanced | significantly enhanced |
